Measured values from patent publication US20050053916A1, “Diagnostic for long term response of HBV carrier to 3TC therapy” (priority 2002, published 2005).
Where “and” joins values, the source holds several entries; their conditions need not be identical. Equal entries are not always repeated. Entries after “also recorded” stand apart in the source; their conditions may differ.

Legend:
[1] = tested on: serum alanine transaminase (ALT); assay: Biochemical response (serum ALT) in chronic hepatitis B patients on long-term lamivudine therapy; format: in vivo, human; details: for No. of patients with ALT elevation / No. of patients with Sustained ALT Normalization: outcome summary
Description: All patients had detectable HBV DNA by polymerase chain reaction (PCR) assay (HBV Monitor, Roche Diagnostics, Inc.) and by solution hybridization assay (Abbott Diagnostics, Inc.) at baseline and for at least 6 months before therapy. […] Patients were negative for hepatitis C, hepatitis D, or human immunodeficiency virus antibodies, and there were no evidences of autoimmune hepatitis. None of the patients were treated with interferon or other antiviral agents, such as famciclovir or adefovir dipovoxil, during the study or within six months before the beginning of lamivudine treatment.
(§1) All patients were followed with monthly clinical examination and routine laboratory tests.
Blood test—An aliquot of serum was collected at each visit and stored at −70° C. until used for analysis.
HBV serologic markers were tested by commercial enzyme immunoassay kits: HBeAg and anti-HBeAg (DiaSorin, Italy), and HBsAg (Abbott Laboratories, Inc.). Serum samples were also evaluated for routine biochemical markers of liver disease, including ALT.
(§2) Definitions—“Responder” patients were classified as attaining both a biochemical and virological response: normalization of ALT values and the absence of serum HBV DNA by Monitor™ PCR in two consecutive determinations during treatment. “Breakthrough” was defined as those patients in who HBV DNA reappeared by Monitor™ PCR assay after an initial antiviral response (serum HBV DNA negative by Monitor™ PCR), eventually associated with an increase of ALT levels greater than 1.5× the upper limit of normal (35 IU/L).

HBV [2] = assay: Virological response (serum HBV DNA, HBV Monitor PCR) in chronic hepatitis B patients on long-term lamivudine therapy; format: in vivo, human; details: for virologic breakthrough observed, number of patients: of 12 breakthrough patients
Excerpt: All patients had detectable HBV DNA by polymerase chain reaction (PCR) assay (HBV Monitor, Roche Diagnostics, Inc.) and by solution hybridization assay (Abbott Diagnostics, Inc.) at baseline and for at least 6 months before therapy. […] Patients were negative for hepatitis C, hepatitis D, or human immunodeficiency virus antibodies, and there were no evidences of autoimmune hepatitis.
as §1
Serum HBV DNA for the evaluation of response to treatment was analyzed by the HBV Monitor™ assay (Roche Diagnostic, Inc.) with a detection limit of 100 copies/ml, and a solution hybridization assay (Abbott Laboratories, Inc.) with a detection limit of 10 pg/ml.
as §2

HBV [3] = details: after 16 weeks or more of treatment; HBeAg positive candidates; cited from earlier work
[4] = individual breakthrough (BK) patients, row order Pt #4, 5, 8, 10, 12, 13, 16, 17, 19, 20, 24, 26, 27-53 months of treatment
[5] = individual non-responder (NR) patients, row order Pt #3, 6, 9, 11, 15, 21, 22, 33-47 months of treatment
[6] = after a minimum of 27 months of therapy, 26 patients

## Nc1ccn([C@@H]2CS[C@H](CO)O2)c(=O)n1 [lamivudine]
[1]; by week 24 of treatment, 13 of 26 patients, lamivudine orally 100 mg daily
  patients in whom serum ALT normalized: 50%
[1]; [4]
  ALT (IU/L), treatment (last follow up): 9 IU/L (2×) and 5 IU/L (3×) and 21 IU/L and 75 IU/L and 81 IU/L and 51 IU/L and 80 IU/L and 2 IU/L and 4 IU/L
[1]; [5]
  ALT (IU/L), treatment (last follow up): 68 IU/L and 37 IU/L and 4 IU/L (2×) and 66 IU/L and 74 IU/L and 85 IU/L
[1]; individual responder (R) patients, row order Pt #1, 2, 7, 14, 18, 23, 25, 27-50 months of treatment, upper limit of normal 35 IU/L
  ALT (IU/L), treatment (last follow up): 30 IU/L and 24 IU/L (2×) and 20 IU/L and 18 IU/L and 21 IU/L and 16 IU/L
[1]; Breakthrough group (12 pts)
  No. of patients with ALT elevation: 5
  No. of patients with Sustained ALT Normalization: 7
[1]; Non-responder group (7 pts)
  No. of patients with ALT elevation: 7
  No. of patients with Sustained ALT Normalization: 0
[1]; Responder group (7 pts)
  No. of patients with ALT elevation: 7
  No. of patients with Sustained ALT Normalization: 0
HBV [2]; after 12 months of therapy
  virologic breakthrough observed, number of patients: 6 patients
HBV [2]; [6]
  patients who were breakthroughs: 46%
  patients who were non-responders: 27%
  patients who were responders: 27%
HBV [2]; between 12 and 18 months of therapy
  virologic breakthrough observed, number of patients: 5 patients
HBV [2]; by week 24 of treatment, 19 of 26 patients, lamivudine orally 100 mg daily
  patients in whom HBV DNA became undetectable: 73%
HBV [2]; [4]
  HBV DNA (log10/ml), treatment (last follow up): 5.00 log10/ml and 5.31 log10/ml and 5.17 log10/ml and 6.20 log10/ml and 5.67 log10/ml and 6.62 log10/ml and 5.88 log10/ml and 4.54 log10/ml and 6.08 log10/ml and 7.02 log10/ml and 6.18 log10/ml
HBV [2]; [5]
  HBV DNA (log10/ml), treatment (last follow up): 4.25 log10/ml and 4.55 log10/ml and 6.11 log10/ml (2×) and 7.28 log10/ml and 5.19 log10/ml and 6.19 log10/ml
HBV [2]; individual responder (R) patients, row order Pt #1, 2, 7, 14, 18, 23, 25, 27-50 months of treatment
  HBV DNA (log10/ml), treatment (last follow up): ud* (undetectable, limit of detection 1000 copies/ml); also recorded: ud (undetectable, limit of detection 1000 copies/ml)
HBV [2]; outcome summary (26 pts)
  No. of Patients (%), Breakthrough: 12 (46%)
  No. of Patients (%), Non-responder: 7 (27%)
  No. of Patients (%), Responder: 7 (27%)

## interferon-alpha
HBV [3]
  individuals who lose serum HBeAg: about 40%
